# Measured values from patent publication US20220298174A1, “TETRACYCLIC COMPOUND, PREPARATION METHOD THEREFOR AND USE THEREOF” (SHANGHAI JEMINCARE PHARMACEUTICALS CO., LTD, priority 2019, published 2022).
# Where two headings read alike, the source gives them in different places.
# What was measured:
# Type in all cases: cell-based
# [1] = system: pERK (Thr202/Tyr204) in NCI-H358 cells expressing mutant RAS (G12C); test: Inhibition of RAS-mediated signal transduction: p-ERK ELISA normalized to Janus green
# Procedure: NCI-H358 cells (ATCC accession No. CRL-5807) expressing mutant RAS (G12C) were cultured in an RPMI medium containing 10% fetal bovine serum, penicillin/streptomycin double antibody. The cells were plated on to a 96-well plate (Corning Cat. No. 3699) at 40,000 cells per well and left standing overnight to adhere to the bottom of the plate. The cells were treated with or without the compounds of the present disclosure (dimethylsulfoxide, DMSO), with a final DMSO concentration of 0.5% ensured. After 2 hours of treatment, the medium was removed, and 4% paraformaldehyde (Beyotime Cat. No. E672002-0100) was added. The resulting mixture was left standing for 20 min. After being immobilized, the cells were washed with PBS and incubated with pre-cooled methanol for 10 min to permeabilize the cell membrane. Non-specific antibody binding was blocked by incubation for 1 h with 1× blocking buffer (Thermo Cat. No. 37520).
# The ERK phosphorylation level was detected by enzyme-linked immunosorbent assay (ELISA). A phospho-ERK antibody (Cell Signal Technology Cat. No. 4370) was 1:400 diluted with 1× blocking solution containing 0.05% tween 20 and added to the 96-well plate for overnight incubation at 4° C. The plate was washed 5 times with PBS containing 0.05% tween 20. An HRP-conjugated secondary antibody (Thermo Cat. No. 31460) was 1:10,000 diluted with 1× blocking buffer containing 0.05% tween 20 and added to the 96-well plate for incubation for 2 h at room temperature. The plate was washed 5 times with PBS containing 0.05% Tween and incubated with TMB (Thermo Cat. No. 4816) at room temperature for 15 min. The reaction was terminated with 1 mol/L H2SO4, and the OD values were read at a wavelength of 450 nm using an EnVision (PerkinElmer).
# The total number of cells per well was measured using the Janus green staining method. The 96-well plate after the detection of the ERK phosphorylation level was washed to colorlessness with PBS and incubated with 0.1% Janus green (Abcam Cat. No. ab111622) for 10 min. After washing with double distilled water, the plate was incubated with 0.1 mol/L HCl with shaking for 10 min. The OD values were read at a wavelength of 595 nm using an EnVision (PerkinElmer).
# The signal values of pERK (Thr202/Tyr204) were normalized using the signal values of Janus green, and the inhibition percentages relative to the DMSO reference were calculated after treatment with the drugs. The percentage values were subjected to four-parameter dose response curve fitting to generate IC50 values.
# [2] = system: NCI-H358 cells expressing KRAS-G12C; test: Cell proliferation assay (Cell Titer Glo), NCI-H358; conditions: Homo sapiens, 72 h, ATP content (Cell Titer Glo)
# Procedure: (§1) The ability of the compounds of the present disclosure to inhibit the growth of KRAS-G12C-expressing cells was assessed by measuring cell viability and calculating GI50 values.
# (§2) Tumor cell line NCI-H358 (ATCC accession No. CRL-5807) expressing KRAS-G12C was cultured in an RPMI medium supplemented with 10% fetal bovine serum and penicillin/streptomycin double antibody; tumor cell line MIA PaCa2 (ATCC CRL-1420) expressing KRAS-G12C was cultured in a DMEM medium supplemented with 10% fetal bovine serum, 2.5% horse serum and penicillin/streptomycin double antibody.
# (§3) NCI-H358 and MIA-Paca2 cells were seeded on a black clear-bottom 384-well plate (PerkinElmer Cat. No. 6007460) at densities of 1000 and 800 cells, respectively, and allowed to adhere to the walls overnight (8-12 h). After the cells adhered to the walls, the diluted compounds of the present disclosure with a concentration that was 5 times that of the working solution (containing 0.1% dimethyl sulfoxide, namely DMSO, at the final concentration) was added to the experimental groups; the same dilution (containing 0.1% DMSO at the final concentration) as in the experimental groups was added to the control group. After 72 h, the amount of cell proliferation was measured by measuring ATP content using a Cell Titer Glo reagent (Promega Cat. No. G7572) according to the method described in the manuals. Steps are briefly as follows: the cell plate was taken out and equilibrated at normal temperature for 30 min; the Cell Titer Glo reagent with an equal volume to that of the culture was added; the culture plate was placed on a shaker for lysis for 2 min; the culture plate was left standing at normal temperature for 10 min; the optical signal values were read using a microplate reader EnVision (PerkinElmer).
# (§4) The inhibition percentages were calculated from the data of the experimental groups relative to the DMSO group, and GI50 was calculated using the data processing software GraphPad by analyzing the inhibitory rates yielded by 9 dosing concentrations produced by 1:3 dilution of the compounds, with the results shown in Table 2.
# [3] = system: MIA PaCa2 cells expressing KRAS-G12C; test: Cell proliferation assay (Cell Titer Glo), MIA PaCa2; conditions: Homo sapiens, MIA PaCa-2, 72 h, ATP content (Cell Titer Glo)
# Procedure: as §1, §2, §3, §4
# [4] = Homo sapiens, NCI-H358, 2 h, NCI-H358 cells, 2 hours of treatment, ELISA, read-out: p-ERK IC50 (NCI H358)
# [5] = NCI-H358 cells, 2 hours of treatment, ELISA, read-out: p-ERK IC50 (NCI H358)
SMILES,"IC50 [1, 4]",GI50 [2],GI50 [3],"IC50 ([1]; Homo sapiens, NCI-H358, 2 h, read-out: p-ERK IC50 (NCI H358, μM))","IC50 [1, 5]"
C=CC(=O)N1CCN2c3nc(=O)n(-c4c(C)ccnc4C(C)C)c4c(F)c(-c5c(O)cccc5F)nc(c34)OC[C@@H]2C1 [Compound 3],0.647 µM,,,,
"C=CC(=O)N1CCN2c3nc(=O)n(-c4c(C)ccnc4C(C)C)c4cc(-c5c(O)ccc(F)c5F)c(F)c(c34)OC[C@H]2C1 (atropisomer, axis not shown) [Compound 4A]",0.038 µM,34 nM,324 nM,,
"C=CC(=O)N1CCN2c3nc(=O)n(-c4c(C)ccnc4C(C)C)c4cc(-c5c(N)c(Cl)cc(Cl)c5F)c(F)c(c34)OC[C@H]2C1 (atropisomer, axis not shown) [Compound 11A]",0.052 µM,70 nM,685 nM,,
C=CC(=O)N1CCN(c2ncnc3c(F)c(-c4c(O)cccc4F)c(Cl)cc23)CC1 [ARS-1620],,510 nM,1210 nM,0.325 µM,
C=CC(=O)N1CCN2c3nc(=O)n(-c4c(C)ccnc4C(C)C)c4cc(-c5c(O)cccc5F)c(F)c(c34)OC[C@H]2C1 [Compound 2A],0.053 µM,29 nM,48 nM,,
C=CC(=O)N1CCN2c3nc(=O)n(-c4c(C)ccnc4C(C)C)c4cc(-c5c(F)ccc6cc[nH]c(=O)c56)c(F)c(c34)OC[C@H]2C1 [Compound 14A],> 10 µM,,,,
"C=CC(=O)N1CCN2c3nc(=O)n(-c4c(C)ccnc4C(C)C)c4cc(-c5c(C)ccc6[nH]ncc56)c(F)c(c34)OC[C@H]2C1 (atropisomer, axis not shown) [Compound 6A]",1.77 µM,,,,
C=CC(=O)N1CCN(c2nc(=O)n(-c3c(C)ccnc3C(C)C)c3c(F)c(-c4c(O)cccc4F)ncc23)[C@@H](C)C1 [Compound 13],0.159 µM,320 nM,1270 nM,,
C=CC(=O)N1CCN2c3nc(=O)n(-c4c(C)ccnc4C(C)C)c4cc(-c5c(O)cccc5F)c(F)c(c34)OC[C@@H]2C1 [Compound 1],,,,,0.288 µM
C=CC(=O)N1CCN2c3nc(=O)n(-c4c(C)ccnc4C(C)C)c4cc(-c5c(N)cccc5F)c(F)c(c34)OC[C@H]2C1 [Compound 12A],0.032 µM,10 nM,54 nM,,
C=CC(=O)N1CCN2c3nc(=O)n(-c4c(C)ccnc4C(C)C)c4cc(-c5c(O)cccc5F)c(F)c(c34)OC[C@@H]2C1 [Compound 1A],,,,,0.61 µM
"C=CC(=O)N1CCN2c3nc(=O)n(-c4c(C)ccnc4C(C)C)c4c(F)c(-c5c(O)cccc5F)nc(c34)OC[C@H]2C1 (atropisomer, axis not shown) [Compound 10A]",0.065 µM,111 nM,333 nM,,
"C=CC(=O)N1CCN2c3nc(=O)n(-c4c(C)ccnc4C(C)C)c4c(F)c(-c5c(O)cccc5F)c(F)c(c34)OC[C@H]2C1 (atropisomer, axis not shown) [Compound 15A]",6.36 µM,3430 nM,4520 nM,,
"C=CC(=O)N1CCN2c3nc(=O)n(-c4c(C)ccnc4C(C)C)c4nc(-c5c(O)cccc5F)c(F)c(c34)OC[C@H]2C1 (atropisomer, axis not shown) [Compound 7A]",0.196 µM,133 nM,629 nM,,
C=C(F)C(=O)N1CCN2c3nc(=O)n(-c4c(C)ccnc4C(C)C)c4cc(-c5c(O)cccc5F)c(F)c(c34)OC[C@H]2C1 [Compound 5A],0.637 µM,,,,
"C=CC(=O)N1C[C@@H]2COc3c(F)c(-c4c(O)cccc4F)nc4c3c(nc(=O)n4-c3c(C)ccnc3C(C)C)N2[C@@H](C)C1 (single isomer, unassigned) [Compound 8A]",0.26 µM,350 nM,304 nM,,
C=CC(=O)N1CCN2c3nc(=O)n(-c4c(C)ccnc4C(C)C)c4cc(-c5c(O)cccc5F)c(F)c(c34)OC[C@H]2C1 [Compound 2],,,,,0.1 µM
